Laboratory results taken from ChEMBL document CHEMBL1145509, “Defining the molecular forces that determine the impact of neomycin on bacterial protein synthesis: importance of the 2'-amino functionality” (Antimicrob Agents Chemother, 2007).
Converted amounts (≈) assume the structure as drawn.

How the values were obtained:
[1] = system: Escherichia coli; test: Binding affinity to Escherichia coli 16S rRNA A-site model at Ec2AP1493 position assessed as shorter rotational correlation time by time resolved fluorescence anisotropy
[2] = system: Escherichia coli; test: Binding affinity to Escherichia coli 16S rRNA A-site model at Ec2AP1493 position assessed as two rotational correlation time by time resolved fluorescence anisotropy
[3] = system: Escherichia coli; test: Antitranslation activity in Escherichia coli extract rRNA S30 assessed as inhibition of luciferase expression by transcription-translation assay; format: functional
[4] = system: Escherichia coli; test: Binding affinity to Escherichia coli 16S rRNA A-site model at Ec2AP1492 position assessed as shorter rotational correlation time by time resolved fluorescence anisotropy
[5] = system: Escherichia coli; test: Binding affinity to Escherichia coli 16S rRNA A-site model at Ec2AP1492 position assessed as two rotational correlation time by time resolved fluorescence anisotropy
[6] = system: Escherichia coli; test: Antibacterial activity against Escherichia coli DH5-alpha after 24 hrs by broth dilution assay; format: functional; conditions: DH5alpha

SMILES	Activity [1]	Activity [2]	IC50 [3]	Activity [4]	Activity [5]	MIC [6]
NC[C@@H]1O[C@H](O[C@@H]2[C@@H](O)[C@@H]3OC4[C@@H](O)[C@H](N)C[C@H](N)[C@H]4O[C@H]4O[C@H](CN)[C@@H](O)[C@H](O)[C@H]4NC[C@H]2O3)[C@H](N)[C@@H](O)[C@@H]1O (some centres not stated)	0.65 nanoseconds	3.95 nanoseconds	1100 nM	0.76 nanoseconds	4.38 nanoseconds	119 µg/mL (≈ 199 µM)
NC[C@@H]1O[C@H](O[C@@H]2[C@@H](O)[C@H](O[C@@H]3[C@@H](O)[C@H](N)C[C@H](N)[C@@H]3O[C@H]3O[C@H](CN)[C@@H](O)[C@H](O)[C@H]3N)O[C@@H]2CO)[C@H](N)[C@@H](O)[C@@H]1O	1.96 nanoseconds	5.32 nanoseconds	50 nM	2.35 nanoseconds	7.32 nanoseconds	1.9 µg/mL (≈ 3.09 µM)
